In the supplement of paper PMC6723410:

Legend:
GUMC-403 [1] = experiment: AC50 for reduction of cell viability; higher = less potent; details: 48 h
GUMC-403 [2] = experiment: viability at highest tested concentration (max response) relative to DMSO (% of DMSO control); higher = less cytotoxic; details: library / dose series: MIPE library, 11-point 1:3 dilution, 48 h
Method in brief: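 In 1536-well plates, 700 GUMC-403 papilloma cells per well, taken from a patient and grown by conditional reprogramming, were seeded in 5 μL F + Y medium and incubated overnight at 37 °C. Compounds were pinned in at 23 nL in an 11-point 1:3 series, and left for 48 h before CellTiter-Glo luminescence was read on a ViewLux against vehicle (100%) and empty (0%) wells. Reported values are viability at the highest tested concentration relative to vehicle control.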

[3] = library / dose series: MIPE library, 11-point 1:3 dilution

Structure (SMILES)	AC50 for reduction of cell viability (GUMC-403 [1]; [3])	viability (GUMC-403 [2]; top concentration 92.2 µM)	viability (GUMC-403 [2]; top concentration 46.1 µM)	AC50 for reduction of cell viability (GUMC-403 [1]; library / dose series: NPC library, 8-point 1:5 dilution)
C[C@H]1O[C@H](C[C@H](O)[C@@H]1O)O[C@H]2[C@@H](O)C[C@@H](O[C@@H]2C)O[C@H]3[C@@H](O)C[C@@H](O[C@@H]3C)O[C@H]4CC[C@@]5(C)[C@H](CC[C@@H]6[C@@H]5C[C@@H](O)[C@]7(C)[C@H](CC[C@]67O)C/8=C/C(=O)OC8)C4	191 nM	48.5	–	–
CC(C)NC[C@@H](C(=O)N1CCN(c2ncnc3c2[C@H](C)C[C@H]3O)CC1)c1ccc(Cl)cc1	2350 nM	–	76.6	–
CC(=O)[C@]1(O)Cc2c(O)c3c(c(O)c2[C@@H](O[C@H]2C[C@H](N)[C@H](O)[C@H](C)O2)C1)C(=O)c1ccccc1C3=O	2350 nM	–	7.29	–
Oc1ccc(-c2ccc(-c3cc(Nc4cccc(CNC5CC5)c4)[nH]n3)cc2)c(O)c1	13200 nM	–	13.7	–
N[S+](=O)([O-])OC[C@@H]1C[C@@H](n2ccc3c(N[C@H]4CCc5ccccc54)ncnc32)C[C@@H]1O	469 nM	–	60.8	–
CN[S+](=O)([O-])CCc1ccc2[nH]cc(C3CCN(C)CC3)c2c1	2350 nM	–	70	–
Nc1nc(F)nc2c1ncn2[C@@H]1O[C@H](CO)[C@@H](O)[C@H]1O	3720 nM	–	47.8	–
CC(C)C[C@H](NC(=O)CNC(=O)c1cc(Cl)ccc1Cl)B1OC(=O)CC(CC(=O)O)(C(=O)O)O1 (stereo partly drawn)	2350 nM	–	38.8	–
COc1ccc([C@@H]2CNC(=O)C2)cc1OC1CCCC1	2960 nM	–	51	–
COc1cccc2c1C(=O)c1c(O)c3c(c(O)c1C2=O)C[C@@](O)(C(=O)CO)C[C@@H]3O[C@H]1C[C@H](N)[C@H](O)[C@H](C)O1	1870 nM	–	34.7	–
COc1cc2nc(-c3ccc(N4CCN(C)CC4)cc3)nc(NCCN3CCOCC3)c2cc1OC	1050 nM	–	48.5	–
CC(C)(O)Cn1c(NC(=O)c2ccc(-c3cn[nH]c3)s2)nc2cc(CN3CCOCC3)ccc21	2350 nM	–	5.55	–
CCn1nnc2c(N3CCOCC3)nc(-c3ccc(NC(=O)Nc4ccc(C(=O)N5CCN(C)CC5)cc4)cc3)nc21	9.35 nM	–	54.4	–
CC(=O)SCC(Cc1ccccc1)C(=O)NCC(=O)OCc1ccccc1 (stereo not drawn)	1180 nM	–	42.8	–
Cn1c2ccccc2c2c3c(c4c5ccccc5n(CCC#N)c4c21)CNC3=O	7430 nM	–	65.1	–
COc1cc(Nc2ncc(F)c(Nc3ccc4c(n3)N(COP(=O)(O)O)C(=O)C(C)(C)O4)n2)cc(OC)c1OC	935 nM	–	34.2	–
C1=C/COCc2cc(ccc2OCCN2CCCC2)Nc2nccc(n2)-c2cccc(c2)OCC/1	7430 nM	–	76.3	–
COc1ccc(-c2nc(N3CCOCC3)c3sc(CN(C)c4ncc(C(=O)NO)cn4)cc3n2)cn1	1050 nM	–	44.7	–
C[C@@H]1O[C@@H](O[C@H]2C[C@@H](O)[C@]3(CO)[C@H]4[C@H](O)C[C@]5(C)[C@@H](C6=CC(=O)OC6)CC[C@]5(O)[C@@H]4CC[C@]3(O)C2)[C@H](O)[C@H](O)[C@H]1O	29.6 nM	–	75.4	–

Structure (SMILES)	AC50 for reduction of cell viability (GUMC-403 [1]; [3])	viability (GUMC-403 [2]; top concentration 92.2 µM)	viability (GUMC-403 [2]; top concentration 46.1 µM)	AC50 for reduction of cell viability (GUMC-403 [1]; library / dose series: NPC library, 8-point 1:5 dilution)
O=C(NOCC1CC1)c1ccc(F)c(F)c1Nc1ccc(I)cc1Cl	23500 nM	–	20.7	13300 nM
CNC(=O)c1cccc(-c2ccc3c(N4CCOC[C@@H]4C)nc(N4CCOC[C@@H]4C)nc3n2)c1	23.5 nM	–	59	–
C[C@@]12OC(=O)[C@@]1(NC(=O)[C@@H]2CCCl)[C@@H](O)[C@H]\3CCC\C=C3	3720 nM	–	6.32	–
COC1=CC=C2/C3=N/CCN3\C(=N/C2=C1OC)NC(=O)C4=CC=CN=C4	5900 nM	–	64.7	–
C=CCNC1=C2C[C@@H](C)C[C@H](OC)[C@H](O)[C@@H](C)/C=C(\C)[C@H](OC(N)=O)[C@@H](OC)/C=C\C=C(/C)C(=O)NC(=CC1=O)C2=O	4180 nM	–	65.3	–
CC(C)(C)c1cnc(CSc2cnc(NC(=O)C3CCNCC3)s2)o1	469 nM	–	24.3	–
FC(F)c1nc2ccccc2n1-c1nc(N2CCOCC2)nc(N2CCOCC2)n1	418 nM	–	71.9	–
CC(C)C[C@@H](C(=O)N[C@H](C(=O)OC1CCCC1)c1ccccc1)[C@H](O)C(=O)NO	1660 nM	–	66.7	–
Cc1[nH]c2ccccc2c1CCNCc1ccc(/C=C/C(=O)NO)cc1	2640 nM	–	38.2	–
COc1cccc2cc(-c3nc(C4CCC(C(=O)O)CC4)n4ncnc(N)c34)[nH]c12 (stereo not drawn)	187 nM	–	59.5	–
CN(C)C1CCN(C(=O)c2ccc(NC(=O)Nc3nc(N4CCOCC4)nc(N4CCOCC4)n3)cc2)CC1	37.2 nM	–	44.5	–
O=C(NCCCNc1nc(Nc2cccc(NC(=O)N3CCCC3)c2)ncc1I)c1cccs1	10500 nM	–	3.39	–
Cc1ccc(NC(=O)C2(c3ccc4c(c3)OC(F)(F)O4)CC2)nc1-c1cccc(C(=O)O)c1	1660 nM	–	6.42	–
CC(=O)NCC(=O)N1[C@@H]2CC[C@H]1c1ccc(Nc3ncc(C(F)(F)F)c(NC4CCC4)n3)cc12	18700 nM	–	4.61	–
CC1(C)Cc2c(sc(NC(=S)NC(=O)c3ccccc3)c2C(=O)O)CO1	26400 nM	–	25.5	–
O=C(Nc1cc(C(F)(F)F)cc(C(F)(F)F)c1)c1cc(Cl)ccc1O	1480 nM	–	70	–
C/C=C1\NC(=O)[C@H]2CSSCC/C=C\[C@H](CC(=O)N[C@H](C(C)C)C(=O)N2)OC(=O)[C@H](C(C)C)NC1=O	105 nM	–	6.97	–
N#CC(=C(/N)Sc1ccccc1N)/C(C#N)=C(\N)Sc1ccccc1N	4690 nM	–	50.4	–
COc1ccc(-c2ccc3c(N4CCOC[C@@H]4C)nc(N4CCOC[C@@H]4C)nc3n2)cc1CO	37.2 nM	–	57.2	–

Structure (SMILES)	AC50 for reduction of cell viability (GUMC-403 [1]; [3])	viability (GUMC-403 [2]; top concentration 92.2 µM)	viability (GUMC-403 [2]; top concentration 46.1 µM)	AC50 for reduction of cell viability (GUMC-403 [1]; library / dose series: NPC library, 8-point 1:5 dilution)
CNC(=O)Nc1ccc(-c2nc(N3CC4CCC(C3)O4)c3cnn(C4CCC5(CC4)OCCO5)c3n2)cc1	3.32 nM	–	62.9	–
O=C1c2ccccc2-[n+]2ccc3c([nH]c4ccccc43)c21	4180 nM	–	3.22	–
CN(C)CCN(C)C(=O)c1ccc(NC(=O)Nc2ccc(-c3nc(N4CCOCC4)c4ccn(CC(F)(F)F)c4n3)cc2)cc1	118 nM	–	5.64	–
O=C1NC(=O)/C(=C/c2ccc3nccc(-c4ccncc4)c3c2)S1	235 nM	–	18.7	–
CC(C)N[C@@H]1CCn2c(=O)[nH]c3cccc(c32)[C@H]1O	9350 nM	–	30.4	–
Cc1cc(Nc2cc(NC(=O)c3c(Cl)cccc3Cl)ccn2)nc(N)n1	20900 nM	–	13	–
Cc1nc2cnc3ccc(C#Cc4cccnc4)cc3c2n1-c1ccc(C(C)(C)C#N)cc1	93.5 nM	–	46.6	–
O=C(NC1CCNCC1)c1n[nH]cc1NC(=O)c1c(Cl)cccc1Cl	1050 nM	–	10.5	–
CCc1cnn2c(NCc3ccc[n+]([O-])c3)cc(N3CCCC[C@H]3CCO)nc12	46.9 nM	–	62.2	–
COc1ccc(-c2ccc3ncc4c(c3c2)n(-c2ccc(N3CCNCC3)c(C(F)(F)F)c2)c(=O)n4C)cn1	8330 nM	–	3.16	–
N[S+](=O)([O-])c1cccc2c1C(=O)c1cccc(O)c1C2=O	13200 nM	–	4.44	–
CNC(=O)c1ccc(N2C(=S)N(c3cnc(C#N)c(C(F)(F)F)c3)C(=O)C23CCC3)cc1F	13200 nM	–	16.6	–
CC1=C(/C=C/C(C)=C/C=C/C(C)=C/C(=O)Nc2ccc(O)cc2)C(C)(C)CCC1	48100 nM	4.3	–	–
CC(=O)N1CCN(c2ccc(OCc3nn(C)c(C)c3-c3cccc4c(CCCOc5cccc6ccccc56)c(C(=O)O)n(Cc5cccnc5)c34)cc2)CC1	7430 nM	–	3.86	–
CC(C)(O)c1cc2nc(-c3cnc(N)nc3)nc(N3CCOCC3)c2s1	148 nM	–	33.5	–
CN1CC[C@H]([C@@H](O)C1)C2=C(O)C=C(O)C3=C2O\C(=C/C3=O)C4=CC=CC=C4Cl	132 nM	–	61.2	–
CCCCN1CCC(CNC(=O)c2c3n(c4ccccc24)CCCO3)CC1	16600 nM	–	23.8	–
CCC[S+](=O)([O-])Nc1ccc(F)c(C(=O)c2c[nH]c3ncc(-c4ccc(Cl)cc4)cc23)c1F	5900 nM	–	54.9	–
